Activity calls are given as the source filed them.
Tests used:
[1] = biological target: Hexokinase-1 (Homo sapiens, UniProt P19367); test: HK1 enzyme inhibition by HKDC1 hits, SAR follow-up, selectivity assay for HKDC1 inhibitor project, biochemical, set 2, resazurin fluorescence coupled readout (AID 588356); type: functional
[2] = biological target: T1, Hexokinase HKDC1 (Homo sapiens, UniProt Q2TB90); test: HKDC1 hexokinase inhibitors, SAR follow-up, biochemical, set 2 (AID 588355); type: functional
T1 sequence (Q2TB90 whole entry): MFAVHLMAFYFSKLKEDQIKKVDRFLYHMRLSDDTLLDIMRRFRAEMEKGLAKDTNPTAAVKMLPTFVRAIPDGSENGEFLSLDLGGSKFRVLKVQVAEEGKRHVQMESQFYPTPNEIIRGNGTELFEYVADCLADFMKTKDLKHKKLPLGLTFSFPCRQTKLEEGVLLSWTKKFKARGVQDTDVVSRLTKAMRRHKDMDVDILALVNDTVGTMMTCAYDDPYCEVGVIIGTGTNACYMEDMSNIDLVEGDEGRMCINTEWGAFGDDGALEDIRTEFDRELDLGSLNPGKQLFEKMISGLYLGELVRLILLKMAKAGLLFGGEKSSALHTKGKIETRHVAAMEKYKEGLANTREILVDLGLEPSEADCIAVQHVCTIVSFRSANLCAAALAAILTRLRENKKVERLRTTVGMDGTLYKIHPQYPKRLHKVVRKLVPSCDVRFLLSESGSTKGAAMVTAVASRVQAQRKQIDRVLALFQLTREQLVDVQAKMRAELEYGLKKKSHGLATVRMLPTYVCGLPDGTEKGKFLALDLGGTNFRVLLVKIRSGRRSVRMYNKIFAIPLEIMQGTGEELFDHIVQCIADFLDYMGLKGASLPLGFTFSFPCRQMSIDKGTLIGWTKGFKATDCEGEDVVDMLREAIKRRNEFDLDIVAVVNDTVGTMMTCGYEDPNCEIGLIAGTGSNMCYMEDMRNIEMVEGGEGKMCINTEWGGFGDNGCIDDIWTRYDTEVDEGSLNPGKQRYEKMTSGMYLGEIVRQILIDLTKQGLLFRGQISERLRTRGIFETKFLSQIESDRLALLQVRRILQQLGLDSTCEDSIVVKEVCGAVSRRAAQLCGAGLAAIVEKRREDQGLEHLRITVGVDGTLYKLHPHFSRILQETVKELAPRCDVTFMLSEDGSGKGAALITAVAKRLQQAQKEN

[3] = biological target: T2, Replicative DNA helicase DnaB (Mycobacterium tuberculosis, UniProt P9WMR3); test: DnaB intein splicing inhibitors, dose response, biochemical, cell-free fluorescence (AID 449749); type: functional
T2 sequence (P9WMR3 whole entry): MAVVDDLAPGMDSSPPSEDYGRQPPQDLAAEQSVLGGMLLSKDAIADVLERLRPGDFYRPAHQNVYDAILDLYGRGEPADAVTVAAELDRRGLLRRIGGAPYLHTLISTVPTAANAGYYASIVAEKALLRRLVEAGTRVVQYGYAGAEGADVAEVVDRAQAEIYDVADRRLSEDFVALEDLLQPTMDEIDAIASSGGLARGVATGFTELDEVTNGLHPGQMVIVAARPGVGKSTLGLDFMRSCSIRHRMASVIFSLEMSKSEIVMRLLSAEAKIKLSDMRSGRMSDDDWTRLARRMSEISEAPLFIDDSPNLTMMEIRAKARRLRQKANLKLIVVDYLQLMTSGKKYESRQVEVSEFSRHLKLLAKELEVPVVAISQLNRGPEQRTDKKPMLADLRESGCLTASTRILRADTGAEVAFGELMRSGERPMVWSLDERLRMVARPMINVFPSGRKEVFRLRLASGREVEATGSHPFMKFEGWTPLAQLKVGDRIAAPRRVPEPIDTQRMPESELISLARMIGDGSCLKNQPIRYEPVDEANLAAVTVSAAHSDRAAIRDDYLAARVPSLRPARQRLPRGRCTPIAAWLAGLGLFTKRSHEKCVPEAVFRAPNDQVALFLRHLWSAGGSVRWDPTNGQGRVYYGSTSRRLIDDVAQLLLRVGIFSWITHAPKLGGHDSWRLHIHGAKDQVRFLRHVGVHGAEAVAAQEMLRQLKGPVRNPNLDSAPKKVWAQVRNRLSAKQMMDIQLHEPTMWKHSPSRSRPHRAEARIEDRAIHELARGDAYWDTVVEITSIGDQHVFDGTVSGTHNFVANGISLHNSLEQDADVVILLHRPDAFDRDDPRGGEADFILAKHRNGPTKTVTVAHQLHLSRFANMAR

[4] = tested on: Vero; test: Vero cell cytotoxicity, cytotoxicity control for flavivirus capping enzyme inhibitors (AID 588742); type: functional; details: Chlorocebus sabaeus
[5] = biological target: Keap1/Nrf2 (Homo sapiens, UniProt Q14145); test: Keap1-Nrf2 protein-protein interaction inhibitors, dose response, biochemical, fluorescence polarization, cherry-picked samples (AID 588683)
Chain of Keap1/Nrf2 (Q16236 whole entry): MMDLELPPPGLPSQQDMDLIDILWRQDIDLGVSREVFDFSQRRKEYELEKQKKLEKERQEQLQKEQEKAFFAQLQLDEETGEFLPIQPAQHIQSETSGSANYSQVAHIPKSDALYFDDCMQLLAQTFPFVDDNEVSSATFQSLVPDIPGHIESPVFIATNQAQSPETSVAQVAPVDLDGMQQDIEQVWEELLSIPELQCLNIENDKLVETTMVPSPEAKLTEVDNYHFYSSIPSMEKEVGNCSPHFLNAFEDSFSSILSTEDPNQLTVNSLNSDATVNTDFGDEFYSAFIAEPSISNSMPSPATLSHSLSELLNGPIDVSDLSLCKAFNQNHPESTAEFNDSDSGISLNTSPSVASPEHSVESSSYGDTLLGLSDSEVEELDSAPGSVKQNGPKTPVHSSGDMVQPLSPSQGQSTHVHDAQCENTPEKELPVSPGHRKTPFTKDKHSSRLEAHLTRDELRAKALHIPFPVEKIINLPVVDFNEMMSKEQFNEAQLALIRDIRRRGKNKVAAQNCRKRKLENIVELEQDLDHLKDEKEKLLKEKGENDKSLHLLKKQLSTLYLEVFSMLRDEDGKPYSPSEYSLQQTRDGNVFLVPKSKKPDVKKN
Chain of Keap1/Nrf2 (Q14145 whole entry): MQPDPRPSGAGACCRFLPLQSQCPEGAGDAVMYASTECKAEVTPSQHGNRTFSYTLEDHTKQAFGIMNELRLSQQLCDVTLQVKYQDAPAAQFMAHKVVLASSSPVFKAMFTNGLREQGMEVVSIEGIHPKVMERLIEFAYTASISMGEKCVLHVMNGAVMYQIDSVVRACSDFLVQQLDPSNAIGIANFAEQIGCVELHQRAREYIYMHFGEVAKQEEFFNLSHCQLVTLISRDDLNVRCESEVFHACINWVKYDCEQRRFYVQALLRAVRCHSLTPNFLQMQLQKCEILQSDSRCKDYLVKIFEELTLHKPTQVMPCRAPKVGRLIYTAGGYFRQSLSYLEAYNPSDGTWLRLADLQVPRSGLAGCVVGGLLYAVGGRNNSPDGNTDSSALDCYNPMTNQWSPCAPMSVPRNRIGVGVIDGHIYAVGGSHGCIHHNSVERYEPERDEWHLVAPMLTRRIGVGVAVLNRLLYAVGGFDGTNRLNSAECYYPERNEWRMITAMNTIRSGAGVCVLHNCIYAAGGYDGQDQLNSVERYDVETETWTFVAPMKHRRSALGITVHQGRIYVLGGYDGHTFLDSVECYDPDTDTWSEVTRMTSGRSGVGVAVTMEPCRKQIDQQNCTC

[6] = biological target: T3, Protein RecA (Mycobacterium tuberculosis, UniProt P9WHJ3); test: Fluorescence Cell-Free Homogeneous Dose Retest to Identify Inhibitors of RecA-Intein Splicing Activity. [Related pubchem assays (depositor defined):AID2097, AID2223, AID489010, AID492950]; type: functional
T3 sequence (P9WHJ3 whole entry): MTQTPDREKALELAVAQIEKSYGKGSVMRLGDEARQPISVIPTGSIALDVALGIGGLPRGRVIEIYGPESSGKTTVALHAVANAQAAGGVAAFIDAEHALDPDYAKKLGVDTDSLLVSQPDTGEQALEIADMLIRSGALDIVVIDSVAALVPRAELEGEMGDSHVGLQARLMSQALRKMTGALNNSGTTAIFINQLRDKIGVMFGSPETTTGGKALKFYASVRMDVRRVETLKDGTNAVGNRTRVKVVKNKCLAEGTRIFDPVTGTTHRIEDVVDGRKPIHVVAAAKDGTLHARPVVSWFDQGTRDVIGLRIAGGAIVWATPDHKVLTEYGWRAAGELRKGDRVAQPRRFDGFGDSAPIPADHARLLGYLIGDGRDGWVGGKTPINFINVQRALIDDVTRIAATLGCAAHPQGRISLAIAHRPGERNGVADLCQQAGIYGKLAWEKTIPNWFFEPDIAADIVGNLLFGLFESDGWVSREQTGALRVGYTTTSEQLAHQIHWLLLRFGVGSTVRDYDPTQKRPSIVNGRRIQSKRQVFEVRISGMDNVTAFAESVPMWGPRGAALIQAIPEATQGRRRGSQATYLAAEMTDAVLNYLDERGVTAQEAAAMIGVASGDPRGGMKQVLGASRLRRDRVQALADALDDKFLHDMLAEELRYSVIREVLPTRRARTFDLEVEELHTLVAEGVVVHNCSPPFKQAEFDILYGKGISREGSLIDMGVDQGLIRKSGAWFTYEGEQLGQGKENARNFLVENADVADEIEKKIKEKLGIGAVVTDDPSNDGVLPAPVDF

[7] = biological target: Genome polyprotein (dengue virus type 2, UniProt P29990); test: Dengue-2 NS5 methyltransferase inhibitors, primary screen, biochemical, confirmation dose response (AID 588689); type: functional
Chain of Genome polyprotein (P29990 2492-3391 limits assumed): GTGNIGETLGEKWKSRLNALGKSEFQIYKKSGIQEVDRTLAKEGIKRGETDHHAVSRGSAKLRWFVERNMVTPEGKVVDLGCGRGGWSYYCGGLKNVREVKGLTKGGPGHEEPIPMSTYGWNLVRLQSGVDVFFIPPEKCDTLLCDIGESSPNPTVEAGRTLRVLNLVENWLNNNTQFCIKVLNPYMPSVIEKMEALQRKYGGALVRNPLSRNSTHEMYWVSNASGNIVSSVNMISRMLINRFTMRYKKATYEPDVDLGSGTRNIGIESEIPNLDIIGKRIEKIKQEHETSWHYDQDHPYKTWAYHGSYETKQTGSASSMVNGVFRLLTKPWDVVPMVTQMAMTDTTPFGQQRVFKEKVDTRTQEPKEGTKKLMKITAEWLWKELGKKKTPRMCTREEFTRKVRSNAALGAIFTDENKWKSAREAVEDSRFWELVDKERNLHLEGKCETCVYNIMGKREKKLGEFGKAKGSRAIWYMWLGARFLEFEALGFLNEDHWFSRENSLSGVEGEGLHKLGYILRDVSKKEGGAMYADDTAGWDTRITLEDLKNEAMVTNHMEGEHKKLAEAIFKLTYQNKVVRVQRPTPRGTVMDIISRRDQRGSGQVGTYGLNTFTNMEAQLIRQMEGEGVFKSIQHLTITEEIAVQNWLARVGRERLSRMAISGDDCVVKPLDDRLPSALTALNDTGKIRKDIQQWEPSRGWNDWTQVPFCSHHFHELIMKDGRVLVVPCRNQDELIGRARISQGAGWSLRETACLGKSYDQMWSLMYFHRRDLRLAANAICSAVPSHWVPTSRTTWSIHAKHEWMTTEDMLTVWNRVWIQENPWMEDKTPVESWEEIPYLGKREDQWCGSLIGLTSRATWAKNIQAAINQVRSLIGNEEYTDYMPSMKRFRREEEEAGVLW

[8] = tested on: Escherichia coli; test: microbe, parasite or virus in culture

Chain of Hexokinase-1 (P19367 whole entry): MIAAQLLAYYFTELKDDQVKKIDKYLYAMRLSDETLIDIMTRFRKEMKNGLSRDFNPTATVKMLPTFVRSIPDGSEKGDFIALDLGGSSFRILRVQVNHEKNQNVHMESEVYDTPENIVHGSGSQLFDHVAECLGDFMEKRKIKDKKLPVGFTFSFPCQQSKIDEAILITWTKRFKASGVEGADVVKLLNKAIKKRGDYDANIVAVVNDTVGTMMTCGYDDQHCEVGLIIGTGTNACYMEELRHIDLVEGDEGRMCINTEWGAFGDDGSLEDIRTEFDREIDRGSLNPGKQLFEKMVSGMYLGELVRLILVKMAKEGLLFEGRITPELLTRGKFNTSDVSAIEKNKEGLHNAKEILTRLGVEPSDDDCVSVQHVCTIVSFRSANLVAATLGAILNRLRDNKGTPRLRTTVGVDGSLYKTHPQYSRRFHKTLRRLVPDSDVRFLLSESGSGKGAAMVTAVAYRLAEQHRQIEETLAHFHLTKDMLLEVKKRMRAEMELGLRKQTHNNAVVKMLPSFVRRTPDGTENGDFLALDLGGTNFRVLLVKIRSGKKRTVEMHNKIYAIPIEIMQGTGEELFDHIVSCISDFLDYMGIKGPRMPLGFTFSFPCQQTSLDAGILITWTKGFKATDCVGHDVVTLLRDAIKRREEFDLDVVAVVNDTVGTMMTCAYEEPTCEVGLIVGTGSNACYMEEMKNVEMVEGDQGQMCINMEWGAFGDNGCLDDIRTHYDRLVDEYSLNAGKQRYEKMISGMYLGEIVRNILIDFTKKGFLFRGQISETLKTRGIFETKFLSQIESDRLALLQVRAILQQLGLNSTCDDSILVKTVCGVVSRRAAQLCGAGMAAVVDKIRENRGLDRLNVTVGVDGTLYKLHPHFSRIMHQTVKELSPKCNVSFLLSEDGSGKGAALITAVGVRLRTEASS

With `Cc1ccccc1NC1c2ccccc2C(=O)N1c1ccccc1C` (stereo not drawn) the IC50 [1] was > 80 µM (inactive) and the IC50 [2] was > 80 µM (inactive).
`O=C1/C(=N\S(=O)(=O)c2ccc([N+](=O)[O-])cc2)C(Cl)=C(O)c2ccccc21` was tested, and the AC50 [3] was 6.49 µM (active), the CC50 [4] was 34.2 µM (active) and the AC50 [5] was > 52 µM (inactive). For the same molecule, the EC50 [6] was 1.26 µM (active) and the IC50 [7] was 76.9 µM (active).
In the case of `CCCC(C(=O)NNC(=O)c1cc(C)oc1C)c1ccccc1` (stereo not drawn), the AC50 [8] is reported as 31.7 µM (active).

Reference: ChEMBL document CHEMBL1201862, “PubChem BioAssay data set” (2004)
